# According to ChEMBL document CHEMBL3991601, “The target landscape of clinical kinase drugs” (Science, 2017):
# Activity calls are given as the source filed them.
# Target: T1, Succinate--CoA ligase [ADP-forming] subunit beta, mitochondrial (Homo sapiens, UniProt Q9P2R7)
# T1 sequence (Q9P2R7 whole entry): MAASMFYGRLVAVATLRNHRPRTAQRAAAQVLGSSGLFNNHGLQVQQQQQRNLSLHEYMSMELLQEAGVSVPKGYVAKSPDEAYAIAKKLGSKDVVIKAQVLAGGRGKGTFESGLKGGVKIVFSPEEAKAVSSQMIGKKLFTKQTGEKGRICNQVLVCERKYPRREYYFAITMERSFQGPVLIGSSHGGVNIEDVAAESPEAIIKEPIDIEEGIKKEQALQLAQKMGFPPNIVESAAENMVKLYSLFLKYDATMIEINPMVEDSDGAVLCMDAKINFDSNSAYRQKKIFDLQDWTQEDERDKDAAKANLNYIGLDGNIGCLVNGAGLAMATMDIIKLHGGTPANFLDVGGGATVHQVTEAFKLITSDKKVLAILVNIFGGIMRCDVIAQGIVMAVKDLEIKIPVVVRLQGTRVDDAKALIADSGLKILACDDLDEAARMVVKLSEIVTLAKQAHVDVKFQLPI
# Settings: not given
# Also: in the data inactive means no Kd found up to 30 µM.
row,Structure (SMILES),Kd
1,Cc1cn(-c2cc(NC(=O)c3ccc(C)c(Nc4nccc(-c5cccnc5)n4)c3)cc(C(F)(F)F)c2)cn1 [NILOTINIB],> 30 µM (inactive)
2,OCCn1cc(-c2cnc3nnn(Cc4ccc5ncccc5c4)c3n2)cn1 [PF-04217903],> 30 µM (inactive)
3,CN(C)C(=O)c1cc2cnc(Nc3ccc(N4CCNCC4)cn3)nc2n1C1CCCC1 [RIBOCICLIB],> 30 µM (inactive)
4,O=C(Nc1cccc(Cl)c1)Nc1ncc(CCNc2ncnc3ccsc23)s1 [SNS-314],> 30 µM (inactive)

# Target: Mitogen-activated protein kinase 8 (Homo sapiens, UniProt P45983)
# Settings: not given
# Sequence of Mitogen-activated protein kinase 8 (P45983 whole entry): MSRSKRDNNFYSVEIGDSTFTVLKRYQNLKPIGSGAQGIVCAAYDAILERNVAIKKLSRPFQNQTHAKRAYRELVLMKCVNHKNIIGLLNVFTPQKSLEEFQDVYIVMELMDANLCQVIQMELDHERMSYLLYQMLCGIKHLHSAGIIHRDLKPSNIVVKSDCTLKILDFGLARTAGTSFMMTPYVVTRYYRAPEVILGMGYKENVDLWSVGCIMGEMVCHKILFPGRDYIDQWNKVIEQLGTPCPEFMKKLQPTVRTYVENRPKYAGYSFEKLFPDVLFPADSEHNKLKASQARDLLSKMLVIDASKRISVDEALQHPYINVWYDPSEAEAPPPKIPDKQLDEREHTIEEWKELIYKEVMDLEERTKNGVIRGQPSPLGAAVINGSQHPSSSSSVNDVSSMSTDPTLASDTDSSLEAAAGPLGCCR
row,Structure (SMILES),Kd
1,CN(C)C(=O)c1cc2cnc(Nc3ccc(N4CCNCC4)cn3)nc2n1C1CCCC1 [RIBOCICLIB],> 30 µM (inactive)

# Target: Tyrosine-protein kinase SYK (Homo sapiens, UniProt P43405)
# Settings: not given
row,Structure (SMILES),Kd
1,OCCn1cc(-c2cnc3nnn(Cc4ccc5ncccc5c4)c3n2)cn1 [PF-04217903],> 30 µM (inactive)
2,CN(C)C(=O)c1cc2cnc(Nc3ccc(N4CCNCC4)cn3)nc2n1C1CCCC1 [RIBOCICLIB],> 30 µM (inactive)

# Target: T2, Peroxisomal acyl-coenzyme A oxidase 3 (Homo sapiens, UniProt O15254)
# T2 sequence (O15254 whole entry): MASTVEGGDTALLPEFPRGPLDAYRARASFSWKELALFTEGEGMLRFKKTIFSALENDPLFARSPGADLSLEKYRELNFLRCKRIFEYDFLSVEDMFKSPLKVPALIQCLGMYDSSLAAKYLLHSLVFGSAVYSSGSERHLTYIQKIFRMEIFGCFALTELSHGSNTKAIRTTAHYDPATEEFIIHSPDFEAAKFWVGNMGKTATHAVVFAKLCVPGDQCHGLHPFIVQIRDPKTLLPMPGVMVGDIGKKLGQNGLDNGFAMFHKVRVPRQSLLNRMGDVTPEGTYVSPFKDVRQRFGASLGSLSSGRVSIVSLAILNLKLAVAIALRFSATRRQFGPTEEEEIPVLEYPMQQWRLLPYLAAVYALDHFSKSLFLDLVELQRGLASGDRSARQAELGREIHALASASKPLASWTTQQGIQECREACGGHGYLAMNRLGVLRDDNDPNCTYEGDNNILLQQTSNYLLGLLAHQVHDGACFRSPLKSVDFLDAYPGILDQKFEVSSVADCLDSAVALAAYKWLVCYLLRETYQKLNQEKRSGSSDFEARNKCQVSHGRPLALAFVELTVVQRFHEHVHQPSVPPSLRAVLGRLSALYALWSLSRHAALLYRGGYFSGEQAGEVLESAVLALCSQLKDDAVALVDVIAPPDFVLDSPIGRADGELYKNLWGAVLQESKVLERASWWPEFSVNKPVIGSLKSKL
# Settings: not given
row,Structure (SMILES),Kd
1,Cc1cn(-c2cc(NC(=O)c3ccc(C)c(Nc4nccc(-c5cccnc5)n4)c3)cc(C(F)(F)F)c2)cn1 [NILOTINIB],> 30 µM (inactive)
2,OCCn1cc(-c2cnc3nnn(Cc4ccc5ncccc5c4)c3n2)cn1 [PF-04217903],> 30 µM (inactive)
3,CN(C)C(=O)c1cc2cnc(Nc3ccc(N4CCNCC4)cn3)nc2n1C1CCCC1 [RIBOCICLIB],> 30 µM (inactive)
4,O=C(Nc1cccc(Cl)c1)Nc1ncc(CCNc2ncnc3ccsc23)s1 [SNS-314],0.026 µM (active)

# Target: Serine/threonine-protein kinase MRCK beta (Homo sapiens, UniProt Q9Y5S2)
# Settings: not given
# Sequence of Serine/threonine-protein kinase MRCK beta (Q9Y5S2 whole entry): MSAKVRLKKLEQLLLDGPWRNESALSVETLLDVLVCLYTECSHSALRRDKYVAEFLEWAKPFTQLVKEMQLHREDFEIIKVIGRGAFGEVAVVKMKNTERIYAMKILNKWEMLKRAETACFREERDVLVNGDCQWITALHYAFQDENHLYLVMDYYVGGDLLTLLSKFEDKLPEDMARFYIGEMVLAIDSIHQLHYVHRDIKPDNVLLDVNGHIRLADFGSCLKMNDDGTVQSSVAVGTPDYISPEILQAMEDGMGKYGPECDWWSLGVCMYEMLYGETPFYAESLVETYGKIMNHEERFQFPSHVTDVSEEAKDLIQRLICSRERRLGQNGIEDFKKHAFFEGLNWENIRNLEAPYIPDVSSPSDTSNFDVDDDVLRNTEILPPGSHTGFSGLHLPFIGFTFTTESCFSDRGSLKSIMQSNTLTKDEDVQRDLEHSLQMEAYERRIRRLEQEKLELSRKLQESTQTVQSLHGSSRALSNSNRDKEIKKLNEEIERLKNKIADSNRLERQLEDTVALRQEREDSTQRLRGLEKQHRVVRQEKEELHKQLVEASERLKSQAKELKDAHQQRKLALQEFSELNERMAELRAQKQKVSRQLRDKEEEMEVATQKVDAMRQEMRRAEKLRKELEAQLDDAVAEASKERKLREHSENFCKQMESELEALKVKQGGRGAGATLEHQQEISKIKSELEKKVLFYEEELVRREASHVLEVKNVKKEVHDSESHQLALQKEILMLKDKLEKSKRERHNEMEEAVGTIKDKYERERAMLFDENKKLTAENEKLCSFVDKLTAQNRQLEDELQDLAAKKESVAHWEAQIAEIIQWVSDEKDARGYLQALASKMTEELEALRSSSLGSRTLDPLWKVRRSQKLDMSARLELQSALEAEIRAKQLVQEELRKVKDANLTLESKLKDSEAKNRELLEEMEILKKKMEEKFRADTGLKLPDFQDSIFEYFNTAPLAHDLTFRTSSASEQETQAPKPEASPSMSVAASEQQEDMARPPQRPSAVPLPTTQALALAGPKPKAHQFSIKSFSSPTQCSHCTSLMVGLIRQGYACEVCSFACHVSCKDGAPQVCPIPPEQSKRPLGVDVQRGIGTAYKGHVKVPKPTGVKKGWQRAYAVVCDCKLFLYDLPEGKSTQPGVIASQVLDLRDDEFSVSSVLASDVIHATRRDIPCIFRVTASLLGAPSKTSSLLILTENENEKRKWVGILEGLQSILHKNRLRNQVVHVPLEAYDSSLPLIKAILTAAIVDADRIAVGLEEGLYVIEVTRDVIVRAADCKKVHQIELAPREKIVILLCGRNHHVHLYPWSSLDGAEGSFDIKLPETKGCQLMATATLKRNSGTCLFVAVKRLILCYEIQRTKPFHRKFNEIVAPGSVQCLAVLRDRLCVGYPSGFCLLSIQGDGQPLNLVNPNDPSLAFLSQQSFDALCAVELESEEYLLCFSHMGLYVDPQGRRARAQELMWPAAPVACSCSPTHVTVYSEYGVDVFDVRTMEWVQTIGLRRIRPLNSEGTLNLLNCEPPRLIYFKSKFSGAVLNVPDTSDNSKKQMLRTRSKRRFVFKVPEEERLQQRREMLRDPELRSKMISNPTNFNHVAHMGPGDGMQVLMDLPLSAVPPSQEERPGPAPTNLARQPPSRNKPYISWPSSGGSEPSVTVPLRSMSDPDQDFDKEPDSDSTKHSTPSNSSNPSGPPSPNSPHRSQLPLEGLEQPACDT
row,Structure (SMILES),Kd
1,OCCn1cc(-c2cnc3nnn(Cc4ccc5ncccc5c4)c3n2)cn1 [PF-04217903],> 30 µM (inactive)
2,CN(C)C(=O)c1cc2cnc(Nc3ccc(N4CCNCC4)cn3)nc2n1C1CCCC1 [RIBOCICLIB],> 30 µM (inactive)
3,O=C(Nc1cccc(Cl)c1)Nc1ncc(CCNc2ncnc3ccsc23)s1 [SNS-314],> 30 µM (inactive)

# Target: T3, Glycogen phosphorylase, liver form (Homo sapiens, UniProt P06737)
# T3 sequence (P06737 whole entry): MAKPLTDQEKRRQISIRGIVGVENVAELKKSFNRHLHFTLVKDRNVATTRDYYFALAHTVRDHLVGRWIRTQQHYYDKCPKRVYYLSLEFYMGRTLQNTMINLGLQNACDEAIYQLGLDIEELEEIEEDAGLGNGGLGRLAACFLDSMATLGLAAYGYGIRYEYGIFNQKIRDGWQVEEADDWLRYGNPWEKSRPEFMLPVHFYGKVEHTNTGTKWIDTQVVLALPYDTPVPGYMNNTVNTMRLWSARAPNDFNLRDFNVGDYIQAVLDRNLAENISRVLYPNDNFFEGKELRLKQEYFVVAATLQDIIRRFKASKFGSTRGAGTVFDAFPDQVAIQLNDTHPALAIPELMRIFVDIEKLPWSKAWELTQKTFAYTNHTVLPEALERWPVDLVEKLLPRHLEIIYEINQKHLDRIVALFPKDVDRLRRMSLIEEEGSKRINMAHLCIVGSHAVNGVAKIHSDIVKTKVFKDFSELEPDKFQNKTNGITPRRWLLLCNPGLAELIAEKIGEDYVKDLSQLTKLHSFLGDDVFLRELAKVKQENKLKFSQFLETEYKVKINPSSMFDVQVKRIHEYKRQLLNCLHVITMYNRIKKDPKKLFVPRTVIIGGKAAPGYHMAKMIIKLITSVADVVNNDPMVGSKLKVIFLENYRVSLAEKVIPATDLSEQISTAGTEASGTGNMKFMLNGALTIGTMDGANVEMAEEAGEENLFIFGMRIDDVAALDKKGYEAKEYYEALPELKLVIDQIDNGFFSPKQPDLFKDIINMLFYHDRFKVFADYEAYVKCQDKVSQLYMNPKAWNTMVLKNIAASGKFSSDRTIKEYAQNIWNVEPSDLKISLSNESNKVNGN
# Type: subcellular, K-562, COLO 205, SK-N-BE(2) and MV-4-11, Cell lysate
# Settings: read-out: Kd apparent
row,Structure (SMILES),Kd
1,Cc1cn(-c2cc(NC(=O)c3ccc(C)c(Nc4nccc(-c5cccnc5)n4)c3)cc(C(F)(F)F)c2)cn1 [NILOTINIB],> 30 µM (inactive)
2,OCCn1cc(-c2cnc3nnn(Cc4ccc5ncccc5c4)c3n2)cn1 [PF-04217903],> 30 µM (inactive)
3,CN(C)C(=O)c1cc2cnc(Nc3ccc(N4CCNCC4)cn3)nc2n1C1CCCC1 [RIBOCICLIB],> 30 µM (inactive)
4,O=C(Nc1cccc(Cl)c1)Nc1ncc(CCNc2ncnc3ccsc23)s1 [SNS-314],> 30 µM (inactive)

# Target: T4, Delta(24)-sterol reductase (Homo sapiens, UniProt Q15392)
# T4 sequence (Q15392 whole entry): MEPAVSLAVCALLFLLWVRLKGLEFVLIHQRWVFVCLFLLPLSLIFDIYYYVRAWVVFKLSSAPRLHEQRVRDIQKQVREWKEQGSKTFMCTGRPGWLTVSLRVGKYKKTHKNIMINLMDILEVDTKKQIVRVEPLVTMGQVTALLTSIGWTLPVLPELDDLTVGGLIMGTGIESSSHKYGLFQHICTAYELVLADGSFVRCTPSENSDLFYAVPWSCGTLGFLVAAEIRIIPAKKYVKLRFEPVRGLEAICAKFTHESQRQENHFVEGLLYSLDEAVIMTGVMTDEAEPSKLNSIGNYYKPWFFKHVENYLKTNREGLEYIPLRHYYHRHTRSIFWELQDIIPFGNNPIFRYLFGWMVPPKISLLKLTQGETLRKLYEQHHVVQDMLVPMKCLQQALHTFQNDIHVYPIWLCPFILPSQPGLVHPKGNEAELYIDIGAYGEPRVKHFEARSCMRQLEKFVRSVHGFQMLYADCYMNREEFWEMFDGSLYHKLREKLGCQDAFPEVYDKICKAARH
# Settings: not given
row,Structure (SMILES),Kd
1,Cc1cn(-c2cc(NC(=O)c3ccc(C)c(Nc4nccc(-c5cccnc5)n4)c3)cc(C(F)(F)F)c2)cn1 [NILOTINIB],> 30 µM (inactive)
2,OCCn1cc(-c2cnc3nnn(Cc4ccc5ncccc5c4)c3n2)cn1 [PF-04217903],> 30 µM (inactive)
3,CN(C)C(=O)c1cc2cnc(Nc3ccc(N4CCNCC4)cn3)nc2n1C1CCCC1 [RIBOCICLIB],> 30 µM (inactive)
4,O=C(Nc1cccc(Cl)c1)Nc1ncc(CCNc2ncnc3ccsc23)s1 [SNS-314],> 30 µM (inactive)

# Target: Cyclin-dependent kinase 4 (Homo sapiens, UniProt P11802)
# Settings: not given
# Sequence of Cyclin-dependent kinase 4 (P11802 whole entry): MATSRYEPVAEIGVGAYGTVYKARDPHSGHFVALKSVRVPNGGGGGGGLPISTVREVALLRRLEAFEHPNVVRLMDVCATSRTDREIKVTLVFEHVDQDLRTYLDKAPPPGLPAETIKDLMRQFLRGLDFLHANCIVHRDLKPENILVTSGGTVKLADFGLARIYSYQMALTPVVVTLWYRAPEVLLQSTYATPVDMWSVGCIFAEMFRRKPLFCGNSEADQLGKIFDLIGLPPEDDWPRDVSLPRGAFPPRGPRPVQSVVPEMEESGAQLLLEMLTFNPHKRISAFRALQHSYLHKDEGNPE
row,Structure (SMILES),Kd
1,OCCn1cc(-c2cnc3nnn(Cc4ccc5ncccc5c4)c3n2)cn1 [PF-04217903],> 30 µM (inactive)
2,O=C(Nc1cccc(Cl)c1)Nc1ncc(CCNc2ncnc3ccsc23)s1 [SNS-314],> 30 µM (inactive)

# Target: Activin receptor type-2B (Homo sapiens, UniProt Q13705)
# Settings: not given
# Sequence of Activin receptor type-2B (Q13705 whole entry): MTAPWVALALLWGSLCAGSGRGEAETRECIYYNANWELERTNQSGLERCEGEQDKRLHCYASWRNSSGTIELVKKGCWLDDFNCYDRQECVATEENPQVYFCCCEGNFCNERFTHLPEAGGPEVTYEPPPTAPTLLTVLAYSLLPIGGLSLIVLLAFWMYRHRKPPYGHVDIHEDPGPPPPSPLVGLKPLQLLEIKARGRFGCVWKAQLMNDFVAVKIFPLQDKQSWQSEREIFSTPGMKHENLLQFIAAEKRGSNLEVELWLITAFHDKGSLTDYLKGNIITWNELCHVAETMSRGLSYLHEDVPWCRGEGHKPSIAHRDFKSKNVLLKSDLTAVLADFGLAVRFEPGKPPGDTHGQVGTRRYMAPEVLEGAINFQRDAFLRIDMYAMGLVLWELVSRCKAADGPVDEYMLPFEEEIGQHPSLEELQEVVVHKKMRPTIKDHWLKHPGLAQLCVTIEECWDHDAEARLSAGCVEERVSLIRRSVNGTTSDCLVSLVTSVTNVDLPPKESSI
row,Structure (SMILES),Kd
1,OCCn1cc(-c2cnc3nnn(Cc4ccc5ncccc5c4)c3n2)cn1 [PF-04217903],> 30 µM (inactive)
2,CN(C)C(=O)c1cc2cnc(Nc3ccc(N4CCNCC4)cn3)nc2n1C1CCCC1 [RIBOCICLIB],> 30 µM (inactive)
3,O=C(Nc1cccc(Cl)c1)Nc1ncc(CCNc2ncnc3ccsc23)s1 [SNS-314],> 30 µM (inactive)

# Target: cAMP-dependent protein kinase catalytic subunit beta (Homo sapiens, UniProt P22694)
# Settings: not given
row,Structure (SMILES),Kd
1,OCCn1cc(-c2cnc3nnn(Cc4ccc5ncccc5c4)c3n2)cn1 [PF-04217903],> 30 µM (inactive)
2,CN(C)C(=O)c1cc2cnc(Nc3ccc(N4CCNCC4)cn3)nc2n1C1CCCC1 [RIBOCICLIB],> 30 µM (inactive)
3,O=C(Nc1cccc(Cl)c1)Nc1ncc(CCNc2ncnc3ccsc23)s1 [SNS-314],> 30 µM (inactive)

# Target: Tyrosine-protein kinase Fyn (Homo sapiens, UniProt P06241)
# Settings: not given
# Sequence of Tyrosine-protein kinase Fyn (P06241 whole entry): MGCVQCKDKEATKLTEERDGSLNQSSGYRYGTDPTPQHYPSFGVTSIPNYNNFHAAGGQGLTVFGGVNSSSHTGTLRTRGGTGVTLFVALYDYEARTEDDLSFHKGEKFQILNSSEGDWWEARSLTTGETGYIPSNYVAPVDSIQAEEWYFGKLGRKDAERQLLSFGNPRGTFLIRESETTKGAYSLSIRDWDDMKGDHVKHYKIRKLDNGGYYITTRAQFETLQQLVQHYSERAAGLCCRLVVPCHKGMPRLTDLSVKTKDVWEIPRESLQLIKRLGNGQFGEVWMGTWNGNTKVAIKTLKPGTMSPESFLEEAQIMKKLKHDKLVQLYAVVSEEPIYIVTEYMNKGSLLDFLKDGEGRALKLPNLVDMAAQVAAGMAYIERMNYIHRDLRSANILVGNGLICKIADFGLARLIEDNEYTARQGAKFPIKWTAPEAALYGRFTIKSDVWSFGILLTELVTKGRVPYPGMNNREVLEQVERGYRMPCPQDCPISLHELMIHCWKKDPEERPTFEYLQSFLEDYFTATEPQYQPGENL
row,Structure (SMILES),Kd
1,CN(C)C(=O)c1cc2cnc(Nc3ccc(N4CCNCC4)cn3)nc2n1C1CCCC1 [RIBOCICLIB],> 30 µM (inactive)
